pIC50: −log10 of the molar value.
Experiments:
[1] = target: T1, CK2a2 (NP_001887; human full-length protein, GST tagged) (Homo sapiens, UniProt P19784); assay: Biochemical Assay for CK2 Activity; conditions: 33P-ATP radiochemical assay, CK2 sub [RRRDDDSDDD]
T1 construct: human full-length protein, GST tagged; GST; host or cells: insect cells
Protocol: Biochemical Assay for CK2 Activity
(§1) Purified CK2a2 (NP_001887; human full-length protein, GST tagged) from insect cells (final concentration 1.2 nM) is added to freshly prepared Base Reaction Buffer containing 20 mM Hepes (pH 7.5), 10 mM MgCl2, 1 mM EGTA, 0.02% Brij35, 0.02 mg/ml BSA, 0.1 mM Na3VO4, 2 mM DTT, 1% DMSO and CK2 sub [RRRDDDSDDD] (20 μM final). Test compounds in DMSO are then added and the mixture, followed by delivery of ^33P-ATP (specific activity 0.01 μCi/μl final) to initiate the reaction. The kinase reaction is incubated for 120 min at room temperature. The entire reaction mixture is washed through onto a P81 Phosphocellulose paper and washed three times for 10 minutes in 75 mM phosphoric acid and once in methanol prior to drying and scintillation counting.

[2] = target: T2, PIM1 (NP_002639; human full-length protein, 6×His tagged) (Homo sapiens, UniProt P11309); assay: Biochemical Assay for PIM1 Activity; conditions: 33P-ATP radiochemical assay, S6K/Rsk2 peptide 2 substrate
T2 construct: human full-length protein, 6×His tagged; 6xHis; host or cells: insect cells
Protocol: Biochemical Assay for PIM1 Activity
as §1, with “PIM1 (NP_002639;” for “CK2a2 (NP_001887;”, “6×His” for “GST”, “1.0” for “1.2”, “substrate S6K/Rsk2 peptide 2 [KKRNRTLTK]” for “CK2 sub [RRRDDDSDDD]”, “10” for “0.01”

PASK = target: T3, PASK (UniProt #Q96RG2; human recombinant N-terminal GST tagged construct, residues 879-1323) (Homo sapiens, UniProt Q96RG2); assay: PASK ATP Radiochemical Assay; type: biochemical; conditions: 33P-ATP, Myelin Basic Protein substrate, read-out: IC50 Kinase Domain
T3 construct: N-terminal GST tagged construct, residues 879-1323; GST (N); host or cells: insect cells
Protocol: Biochemical Assay for hPASK Activity
PASK ATP Radiochemical Assay
as §1, with “PASK (UniProt #Q96RG2;” for “CK2a2 (NP_001887;”, “recombinant N-terminal” for “full-length protein,”, “tagged construct, residues 879-1323)” for “tagged)”, “5” for “1.2”, “HEPES” for “Hepes”, “Myelin Basic Protein” for “CK2 sub [RRRDDDSDDD]”

PASK (Invitrogen) = target: T4, PASK (Invitrogen) (Homo sapiens, UniProt Q96RG2); assay: PAS Kinase FRET Assay; type: biochemical; conditions: PAS kinase TR-FRET assay (665 nm/615 nm); read-out: IC50 Kinase Domain
T4 construct: IC50 Kinase Domain; purchased Invitrogen
Summary of the method: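 PASK phosphorylates a ULight-peptide with ATP in 50 mM HEPES, 10 mM MgCl2, 1 mM EGTA, 0.01% Tween-20, 2 mM DTT for 2 h at 25° C in the dark. Compounds are added as 4× serial dilutions (top 12×10^−5 M at 4×). After stopping, an Eu anti-phospho-substrate antibody is added for 1 h and TR-FRET is read at 665/615 nm.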

Measured: pIC50

T3 sequence (Q96RG2 879-1323, stated change not applied): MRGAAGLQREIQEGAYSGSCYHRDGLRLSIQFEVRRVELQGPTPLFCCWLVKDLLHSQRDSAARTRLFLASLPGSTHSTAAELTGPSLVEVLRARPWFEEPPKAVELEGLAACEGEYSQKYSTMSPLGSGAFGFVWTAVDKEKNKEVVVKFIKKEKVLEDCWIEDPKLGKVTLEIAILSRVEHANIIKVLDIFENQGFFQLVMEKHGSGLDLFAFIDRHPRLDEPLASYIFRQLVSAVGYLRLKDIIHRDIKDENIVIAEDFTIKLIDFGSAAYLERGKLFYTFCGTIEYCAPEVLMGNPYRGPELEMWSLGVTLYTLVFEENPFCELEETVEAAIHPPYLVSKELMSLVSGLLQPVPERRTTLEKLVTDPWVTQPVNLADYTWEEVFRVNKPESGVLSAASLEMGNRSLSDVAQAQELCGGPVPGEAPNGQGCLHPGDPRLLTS
T1 sequence (P19784 whole entry): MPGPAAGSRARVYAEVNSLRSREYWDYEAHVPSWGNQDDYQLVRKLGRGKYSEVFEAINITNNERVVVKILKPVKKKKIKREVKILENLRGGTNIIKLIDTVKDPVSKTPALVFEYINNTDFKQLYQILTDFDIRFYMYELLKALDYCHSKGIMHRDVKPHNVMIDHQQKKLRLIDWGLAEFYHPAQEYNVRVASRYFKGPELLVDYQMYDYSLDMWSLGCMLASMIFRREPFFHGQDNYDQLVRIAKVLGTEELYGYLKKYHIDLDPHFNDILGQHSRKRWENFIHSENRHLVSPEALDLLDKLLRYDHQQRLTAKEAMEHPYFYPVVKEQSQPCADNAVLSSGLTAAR
T4 sequence (Q96RG2 999-1251 limits assumed): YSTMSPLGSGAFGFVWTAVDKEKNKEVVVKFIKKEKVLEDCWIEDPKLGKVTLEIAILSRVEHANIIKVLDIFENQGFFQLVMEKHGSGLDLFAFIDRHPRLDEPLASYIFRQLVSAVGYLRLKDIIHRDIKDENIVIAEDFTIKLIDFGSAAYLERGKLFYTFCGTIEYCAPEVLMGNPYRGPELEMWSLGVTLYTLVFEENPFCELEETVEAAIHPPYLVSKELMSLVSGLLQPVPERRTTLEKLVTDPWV
T2 sequence (P11309 whole entry): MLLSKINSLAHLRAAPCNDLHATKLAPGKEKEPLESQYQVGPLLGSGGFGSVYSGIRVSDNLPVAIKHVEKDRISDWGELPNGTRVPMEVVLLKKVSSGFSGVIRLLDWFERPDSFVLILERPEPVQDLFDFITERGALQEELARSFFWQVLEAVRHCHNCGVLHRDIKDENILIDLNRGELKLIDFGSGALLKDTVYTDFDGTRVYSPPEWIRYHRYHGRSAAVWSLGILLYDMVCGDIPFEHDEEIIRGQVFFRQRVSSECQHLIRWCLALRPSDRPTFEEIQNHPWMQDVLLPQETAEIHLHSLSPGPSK

CCn1nccc1-c1cnn2c(=O)cc(-c3ccc4c(cnn4C)c3)[nH]c12 [Example 93, 3-(1-ethyl-1H-pyrazol-5-yl)-5-(1-methyl-1H-indazol-5-yl)pyrazolo[1,5-a]pyrimidin-7(4H)-one]
≥ 5.00: all assays above

CCn1ncc2cc(-c3cc(=O)n4ncc(-c5noc6ccccc56)c4[nH]3)ccc21 [Example 59, 3-(benzo[d]isoxazol-3-yl)-5-(1-ethyl-1H-indazol-5-yl)pyrazolo[1,5-a]pyrimidin-7(4H)-one]
≥ 5.00: all assays above

Cn1ncc2cc(-c3cc(=O)n4ncc(-c5ncco5)c4[nH]3)ccc21 [Example 73, 5-(1-methyl-1H-indazol-5-yl)-3-(oxazol-2-yl)-4H,7H-pyrazolo[1,5-a]pyrimidin-7-one]
≥ 5.00: all assays above

CCn1ncc2cc(-c3cc(=O)n4ncc(-c5ncc(-c6ccccc6)o5)c4[nH]3)ccc21 [Example 64, 5-(1-ethyl-1H-indazol-5-yl)-3-(5-phenyloxazol-2-yl)pyrazolo[1,5-a]pyrimidin-7(4H)-one]
≥ 5.00: all assays above

CCc1coc(-c2cnn3c(=O)cc(-c4ccc5[nH]nnc5c4)[nH]c23)n1 [Example 15, 5-(1H-1,2,3-benzotriazol-5-yl)-3-(4-ethyl-1,3-oxazol-2-yl)-4H,7H-pyrazolo[1,5-a]pyrimidin-7-one]
≥ 5.00: all assays above

Cc1cnc(-c2cnn3c(=O)cc(-c4ccc5onc(C)c5c4)[nH]c23)o1 [Example 91, 5-(3-methylbenzo[d]isoxazol-5-yl)-3-(5-methyloxazol-2-yl)pyrazolo[1,5-a]pyrimidin-7(4H)-one]
≥ 5.00: all assays above

Cn1ccc(-c2cnn3c(=O)cc(-c4ccc5c(cnn5C)c4)[nH]c23)n1 [Example 83, 5-(1-methyl-1H-indazol-5-yl)-3-(1-methyl-1H-pyrazol-3-yl)pyrazolo[1,5-a]pyrimidin-7(4H)-one]
≥ 5.00: all assays above

O=c1cc(-c2ccc3[nH]ncc3c2)[nH]c2c(-c3ncco3)cnn12 [Example 23, 5-(1H-indazol-5-yl)-3-(oxazol-2-yl)pyrazolo[1,5-a]pyrimidin-7(4H)-one]
≥ 5.00: all assays above

CCn1ncc2cc(-c3cc(=O)n4ncc(-c5ncco5)c4[nH]3)ccc21 [Example 20, 5-(1-Ethyl-1H-indazol-5-yl)-3-(1,3-oxazol-2-yl)-4H,7H-pyrazolo[1,5-a]pyrimidin-7-one]
≥ 5.00: all assays above

CCn1nccc1-c1cnn2c(=O)cc(-c3ccc(Cl)c(OCC(F)(F)F)c3)[nH]c12 [Example 94, 5-(4-chloro-3-(2,2,2-trifluoroethoxy)phenyl)-3-(1-ethyl-1H-pyrazol-5-yl)pyrazolo[1,5-a]pyrimidin-7(4H)-one]
≥ 5.00: all assays above

Cc1cnc(-c2cnn3c(=O)cc(-c4ccc5[nH]ncc5c4)[nH]c23)o1 [Example 24, 5-(1H-indazol-5-yl)-3-(5-methyloxazol-2-yl)pyrazolo[1,5-a]pyrimidin-7(4H)-one]
≥ 5.00: all assays above

COc1cc(-c2cc(=O)n3ncc(-c4ccn(C)n4)c3[nH]2)ccc1Cl [Example 54, 5-(4-chloro-3-methoxyphenyl)-3-(1-methyl-1H-pyrazol-3-yl)pyrazolo[1,5-a]pyrimidin-7(4H)-one]
≥ 5.00: all assays above

Cn1nccc1-c1cnn2c(=O)cc(-c3ccc(Cl)c(Cl)c3)[nH]c12 [Example 98, 5-(3,4-dichlorophenyl)-3-(1-methyl-1H-pyrazol-5-yl)pyrazolo[1,5-a]pyrimidin-7(4H)-one]
≥ 5.00: all assays above

Cc1cnc(-c2cnn3c(=O)cc(-c4ccc5[nH]nnc5c4)[nH]c23)o1 [Example 5, 5-(1H-1,2,3-benzotriazol-5-yl)-3-(5-methyl-1,3-oxazol-2-yl)-4H,7H-pyrazolo[1,5-a]pyrimidin-7-one]
≥ 5.00: all assays above

CCn1nccc1-c1cnn2c(=O)cc(-c3ccc4c(cnn4CC)c3)[nH]c12 [Example 67, 5-(1-ethyl-1H-indazol-5-yl)-3-(1-ethyl-1H-pyrazol-5-yl)pyrazolo[1,5-a]pyrimidin-7(4H)-one]
≥ 5.00: all assays above

CCn1ncc2cc(-c3cc(=O)n4ncc(-c5cc(C)no5)c4[nH]3)ccc21 [Example 86, 5-(1-ethyl-1H-indazol-5-yl)-3-(3-methylisoxazol-5-yl)pyrazolo[1,5-a]pyrimidin-7(4H)-one]
≥ 5.00: all assays above

CCn1ncc2cc(-c3cc(=O)n4ncc(-c5cc[nH]n5)c4[nH]3)ccc21 [Example 55, 5-(1-ethyl-1H-indazol-5-yl)-3-(1H-pyrazol-3-yl)pyrazolo[1,5-a]pyrimidin-7(4H)-one]
≥ 5.00: all assays above

COc1cc(-c2cc(=O)n3ncc(-c4nc(C)co4)c3[nH]2)ccc1Cl [Example 18, 5-(4-chloro-3-methoxyphenyl)-3-(4-methyl-1,3-oxazol-2-yl)-4H,7H-pyrazolo[1,5-a]pyrimidin-7-one]
≥ 5.00: all assays above

Cc1cnc(-c2cnn3c(=O)cc(-c4ccc5c(c4)OCO5)[nH]c23)o1 [Example 3, 5-(2H-1,3-benzodioxol-5-yl)-3-(5-methyl-1,3-oxazol-2-yl)-4H,7H-pyrazolo[1,5-a]pyrimidin-7-one]
≥ 5.00: all assays above

CCn1ncc2cc(-c3cc(=O)n4ncc(-c5c(C)cnn5C)c4[nH]3)ccc21 [Example 85, 3-(1,4-dimethyl-1H-pyrazol-5-yl)-5-(1-ethyl-1H-indazol-5-yl)-4H,7H-pyrazolo[1,5-a]pyrimidin-7-one]
≥ 5.00: all assays above

Reference: patent publication US10392389B2, “Heterocyclic compounds for the inhibition of PASK” (BioEnergenix, LLC, priority 2012, dated 2019)
